From patent publication US11969425B2, “Inhibitor of indoleamine-2,3-dioxygenase (IDO)” (InventisBio LLC, priority 2016, dated 2024)
Like-named read-outs stand apart in the source and are kept apart here.

Tested on: kynurenine production in HeLa cells
Assay: Inhibition of kynurenine production in HeLa cells
Type: cell-based, human
Conditions: Homo sapiens, HeLa, 48 h
Method: The effect of compounds described herein on the inhibition of kynurenine production in HeLa cells (derived from human cervical cancer) was determined. HeLa cells were seeded into a 96-well culture plate at a density of 5×10^3 per well in RPMI1640/phenol red free media (from GIBCO) with 2 mM L-glutamine and 10% fetal bovine serum (FBS, from GIBCO) and grown overnight in a 37° C. incubator with 5% CO2. Twenty-four hours later, human IFN-γ (from GIBCO) (final concentration 50 ng/mL) and test compound solutions (serially diluted to different wells) were added to each well with a final volume of 200 uL per well. Forty-eight hours after incubation with compounds, 140 uL supernatant was taken from each well and was transferred to a new 96-well plate. Ten microliters of 6.1 N trichloroacetic acid were added into each well, mixed and incubated at 50° C. for 30 minutes. The reaction mixture was then centrifuged for 10 minutes at 2500 rpm and 100 uL of the supernatant per well was transferred to another 96 well plate and mixed with 100 uL of 2% (w/v) p-dimethylaminobenzaldehyde in acetic acid. The yellow color derived from kynurenine was measured at 480 nm using a SPECTRAmax i3 reader. Each compound concentration was done in triplicates and compound IC50 value was calculated using nonlinear regression using Graphpad Prism 5.0.
The inhibitory activity of representative compounds described herein, compared with another IDO inhibitor, such as INCB-24360, Controls 1 and 2 are shown in Table 2.

[1] = HeLa cells, human IFN-γ 50 ng/mL, kynurenine read at 480 nm, read-out: IC50

Row | SMILES | IC50 [1] | IC50
1 | CCC(C(=O)O)c1ccc(N(CC(C)C)C2CCOCC2)c(Nc2ccc(F)cc2F)c1 (centres unmarked) [Compound 69] | 3.9 nM | –
2 | CCC(C(=O)O)c1ccc(N(CC(C)C)C2CCOCC2)c(Nc2ccc(C#N)cc2)c1 (centres unmarked) [Compound 70A] | 0.4 nM | –
3 | CC(C)CN(c1ccc(C2(C(=O)O)CCC2)cc1Nc1ccc(C#N)cc1)C1CCOCC1 [Compound 72] | 0.2 nM | –
4 | CCOc1ccc(Nc2cc(C3(C(=O)O)CCC3)ccc2N(CC(C)C)C2CCOCC2)cc1 [Compound 73] | 0.4 nM | –
5 | CC(C)CN(c1ccc(C2(C(=O)O)CCC2)cc1Nc1cncnc1)C1CCOCC1 [Compound 74] | 1.9 nM | –
6 | Cc1csc(Nc2cc(C3(C(=O)O)CCC3)ccc2N(CC(C)C)C2CCOCC2)n1 [Compound 76] | 1.1 nM | –
7 | CC(C)CN(c1ccc(C2(C(=O)O)CCC2)cc1Nc1ccc(S(C)(=O)=O)cc1)C1CCOCC1 [Compound 77] | 3 nM | –
8 | CC(C)CN(c1ccc(C2(C(=O)O)CCC2)cc1NC1CCCC1)C1CCOCC1 [Compound 78] | 13.9 nM | –
9 | CC(C)CN(c1ccc(C2(C(=O)O)CCC2)cc1NCC1CC1)C1CCOCC1 [Compound 80] | 29 nM | –
10 | CC(C)CN(CC(C)C)c1ncc(C2(C(=O)O)CCC2)cc1NC(=O)Nc1ccc(F)cc1F [Compound 83] | 5.4 nM | –
11 | Cc1cc(NC(=O)Nc2cc(C3(C(=O)O)CCC3)cnc2N(CC(C)C)CC(C)C)on1 [Compound 85] | 19 nM | –
12 | CC(C)CN(c1ccc(C2(C(=O)O)CCC2)cc1Nc1cnn(C)c1)C1CCOCC1 [Compound 87] | 6.5 nM | –
13 | CC(C)CN(c1ccc(C2(C(=O)O)CCC2)cc1Nc1ccc(Cl)cc1F)C1CCOCC1 [Compound 88] | 1.7 nM | –
14 | CC(C)CN(c1ccc(C2(C(=O)O)CCC2)cc1Nc1ccc(F)cc1F)C1CCOCC1 [Compound 89] | 6.3 nM | –
15 | CC(C)CN(c1ncc(C2(C(=O)O)CCC2)cc1NC(=O)Nc1ccc(F)cc1F)C1CCOCC1 [Compound 90] | 33 nM | –
16 | CC(C)CN(c1ncc(C2(C(=O)O)CCC2)cc1Nc1ccc(Cl)cc1)C1CCOCC1 [Compound 92] | 0.2 nM | –
17 | CC(C)CN(CC(C)C)c1ncc(C2(C(=O)O)CCC2)cc1Nc1ccc(C#N)cc1 [Compound 93] | 0.3 nM | –
18 | CC(C)CN(c1ccc(C2(C(=O)O)CCC2)cc1Nc1ccc(C#N)cn1)C1CCCCC1 [Compound 94] | 0.2 nM | –
19 | CC(C)N(CC1CC1)c1ccc(C2(C(=O)O)CCC2)cc1Nc1ccc(Cl)cc1 [Compound 95] | 0.4 nM | –
20 | CC(C)CN(CC(C)C)c1ccc(C2(C(=O)O)CCC2)cc1Nc1ccc(Cl)cc1 [Compound 96] | 0.4 nM | –
21 | CCOc1ncc(Nc2cc(C3(C(=O)O)CCC3)ccc2N(CC(C)C)CC(C)C)cn1 [Compound 97] | 2.4 nM | –

Row | SMILES | IC50 [1] | IC50
22 | CCOc1ncc(Nc2cc(C3(C(=O)O)CCC3)ccc2N(CC2CC2)C(C)C)cn1 [Compound 98] | 2.8 nM | –
23 | CC(C)CN(c1ccc(CC(=O)O)cc1Nc1ccc(C#N)cc1)C1CCCCC1 [Compound 99] | 3.9 nM | –
24 | CC(C)CN(c1ccc(C2(C(=O)O)CCC2)cc1Nc1cccc(Cl)c1)C1CCOCC1 [Compound 100] | 3.5 nM | –
25 | CC(C)CN(c1ccc(C2(C(=O)O)CCC2)cc1Nc1ccc(Cl)c(F)c1)C1CCOCC1 [Compound 101] | 0.2 nM | –
26 | CC(C)CN(c1ccc(C2(C(=O)O)CCC2)cc1Nc1ccc(Cl)cn1)C1CCOCC1 [Compound 102] | 0.2 nM | –
27 | CC(C)CN(c1ccc(C2(C(=O)O)CCC2)cc1Nc1cc(Cl)cc(Cl)c1)C1CCOCC1 [Compound 103] | 20 nM | –
28 | CC(C)CN(c1ccc(CC(=O)O)cc1Nc1ccc(Cl)cc1)C1CCOCC1 [Compound 104] | 1.8 nM | –
29 | CC(C)N(CC1CC1)c1ccc(C2(C(=O)O)CCC2)cc1Nc1ccc(C#N)cn1 [Compound 108] | 0.3 nM | –
30 | CCOc1ncc(Nc2cc(CC(=O)O)ccc2N(CC(C)C)C2CCOCC2)cn1 [Compound 109] | > 316 nM | –
31 | CC(C)N(CC1CC1)c1ccc(C2(C(=O)O)CCC2)cc1Nc1ccc(C#N)cc1 [Compound 112] | 0.2 nM | –
32 | CC(C)N(CC1CC1)c1ccc(C2(C(=O)O)CCC2)cc1Nc1ccc(Cl)cn1 [Compound 113] | 0.4 nM | –
33 | CCOc1ncc(Nc2cc(C(C)(C)C(=O)O)ccc2N(CC2CC2)C(C)C)cn1 [Compound 114] | 25 nM | –
34 | CC(C)N(CC1CC1)c1ncc(C2(C(=O)O)CCC2)cc1Nc1ccc(C#N)cc1 [Compound 116] | 0.5 nM | –
35 | CCOc1ncc(Nc2cc(C(C)(C)C(=O)O)ccc2N(CC(C)C)C2CCOCC2)cn1 [Compound 121] | 4.1 nM | –
36 | CCOc1ncc(Nc2cc(C3(C(=O)O)CCC3)cnc2N(CC(C)C)C2CCOCC2)cn1 [Compound 122] | 2.3 nM | –
37 | CCOc1ncc(Nc2cc(C3(C(=O)O)CCC3)cnc2N(CC)C2CCOCC2)cn1 [Compound 124] | 11.3 nM | –
38 | CCOc1ncc(Nc2cc(C3(C(=O)O)CCC3)cnc2N2CCC(c3ccccc3)CC2)cn1 [Compound 126] | 7.5 nM | –
39 | CCOc1ncc(Nc2cc(C3(C(=O)O)CCC3)cnc2N2C3CCC2CC(c2ccc(F)cc2)C3)cn1 (centres unmarked) [Compound 127] | – | 22 nM
40 | CC(C)C1COCCN1c1ncc(C2(C(=O)O)CCC2)cc1Nc1ccc(Cl)cc1 (centres unmarked) [Compound 128] | 9.3 nM | –
41 | Cc1cc(NC(=O)Nc2cc([C@H]3C[C@H]3C(=O)O)ccc2N(CC(C)C)CC(C)C)on1 [Control 2, (1R,2S)-2-(4-(diisobutylamino)-3-(3-(3-methylisoxazol-5-yl)ureido)phenyl)cyclopropanecarboxylic acid, reference compound] | 3 nM | –
